ChEMBL document CHEMBL6096731, “Structure-Guided Optimization and Preclinical Evaluation of 6-O-Benzylguanine-Based Pin1 Inhibitor for Hepatocellular Carcinoma Treatment” (J Med Chem, 2025)
Active and inactive are the calls of the source. No cut-off for these calls is given here.

Experiments:
[1] = target: Peptidyl-prolyl cis-trans isomerase NIMA-interacting 1 (Homo sapiens, UniProt Q13526); experiment: Inhibition of full length pin1 (unknown origin) expressed in Escherichia coli
[2] = Antiproliferative activity against human HCC cells assessed as cell viability incubated for 72 hrs by alamar blue dye based assay; assay type: toxicity; conditions: for IC50 at 72 h: HCC cells
SK-HEP1 [3] = experiment: Inhibition of colony formation human SK-HEP1 cells at 2.5 uM incubated for 5 days by crystal violet staining based analysis; assay type: functional, cell-based; conditions: time 5.0 day
SK-HEP1 [4] = experiment: Antiproliferative activity human SK-HEP1 cells assessed as cell viability measured at 120 hrs; assay type: functional, cell-based
SK-HEP1 [5] = experiment: Inhibition of cell migration in human SK-HEP1 cells at 5 uM incubated for 24 hrs by crystal violet staining based microscopic analysis; assay type: functional
SK-HEP1 [6] = experiment: Antiproliferative activity human SK-HEP1 cells assessed as cell viability measured at 96 hrs; assay type: functional, cell-based
SK-HEP1 [7] = experiment: Antiproliferative activity human SK-HEP1 cells assessed as cell viability measured up to 120 hrs; assay type: functional, cell-based

Sequence of Peptidyl-prolyl cis-trans isomerase NIMA-interacting 1 (Q13526 whole entry): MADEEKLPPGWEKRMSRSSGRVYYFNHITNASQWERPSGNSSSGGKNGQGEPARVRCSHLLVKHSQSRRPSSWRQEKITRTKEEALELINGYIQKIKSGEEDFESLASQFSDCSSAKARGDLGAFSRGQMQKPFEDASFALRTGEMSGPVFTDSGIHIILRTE

| SMILES | IC50 [1] [nM] | IC50 at 72 h [2] [µM] | other results |
| --- | --- | --- | --- |
| COc1cccc(COc2nc(N)nc3c2ncn3Cc2ccccc2)c1 | 1460 | > 50 |  |
| Nc1nc(OCc2cccs2)c2nc[nH]c2n1 | 7150 | 42.2 |  |
| CSc1ccc(COc2nc(N)nc3[nH]cnc23)cc1 | 829 | 6.9 |  |
| Nc1nc(OCc2cccc(Br)c2)c2nc[nH]c2n1 | 640 | 11.3 |  |
| Nc1nc(OCc2cc(F)ccc2Br)c2nc[nH]c2n1 | 1650 | 22.2 |  |
| Cc1cccc(COc2nc(N)nc3nc[nH]c23)c1 | 208 | 5.5 |  |
| COc1cc(COc2nc(N)nc3[nH]cnc23)cc(OC)c1OC | 7850 | > 50 |  |
| Nc1nc(SCc2ccccc2)c2[nH]cnc2n1 | 2060 | 10.4 |  |
| CCOC(=O)Cn1cnc2c(OCc3cccc(OC)c3)nc(N)nc21 | 21700 | > 50 |  |
| CCOC(=O)CCCn1cnc2c(OCc3cccc(OC)c3)nc(N)nc21 | 19100 | > 50 |  |
| Nc1nc(OCc2ccccc2)c2[nH]cnc2n1 [6-O-BENZYLGUANINE] | 91.4 | 8.5 |  |
| Cc1ccc(COc2nc(N)nc3[nH]cnc23)cc1C | 951 | 5.3 |  |
| Nc1nc(OCc2cccc(Oc3ccccc3)c2)c2nc[nH]c2n1 | > 50000 | 34.3 |  |
| COCOc1cccc(COc2nc(N)nc3[nH]cnc23)c1 | 508 | 7.6 |  |
| Nc1nc(OCc2cc(F)ccc2F)c2nc[nH]c2n1 | 360 | 16.6 |  |
| Nc1nc(OCc2cc(OCc3ccccc3)cc(OCc3ccccc3)c2)c2nc[nH]c2n1 | 11100 | 38.5 |  |
| Nc1nc(OCc2ccccc2-c2ccccc2)c2nc[nH]c2n1 | 8030 | 28.9 |  |
| CC(=O)NCc1ccc(COc2nc(N)nc3[nH]cnc23)cc1 | 125 | 5.3 |  |
| COc1ccc(COc2nc(N)nc3[nH]cnc23)cc1 | 5390 | 4.2 |  |
| COCOc1ccc(COc2nc(N)nc3[nH]cnc23)cc1OC | 519 | > 50 |  |

| SMILES | IC50 [1] [nM] | IC50 at 72 h [2] [µM] | other results |
| --- | --- | --- | --- |
| Nc1nc(OCc2cccc(Cl)c2)c2nc[nH]c2n1 | 179 | 4 |  |
| Nc1nc(OCc2cccc3ccccc23)c2nc[nH]c2n1 | 5790 | 33 |  |
| COC(=O)Cn1cnc2c(OCc3cccc(Cl)c3Cl)nc(N)nc21 | 829 | > 50 |  |
| CCCCOc1nc(N)nc2[nH]cnc12 | 18300 | > 50 |  |
| Nc1nc(OCc2cccc(F)c2)c2nc[nH]c2n1 | 34500 | 3.3 |  |
| CCOC(=O)Cn1cnc2c(OCc3cccc(F)c3)nc(N)nc21 | 8030 | > 50 |  |
| Nc1nc(OCc2cccc(C(F)(F)F)c2)c2nc[nH]c2n1 | 634 | 16 |  |
| COc1cccc(COc2nc(N)nc3[nH]cnc23)c1 | 13500 | 6.6 |  |
| Nc1nc(OCC2CCCCC2)c2nc[nH]c2n1 | 5690 | 29.6 |  |
| O=C1C=CC(=O)c2c(O)cccc21 |  |  | inhibition (SK-HEP1 [3]): Active |
| CCOC(=O)Cn1cnc2c(OCc3cccc(Oc4ccccc4)c3)nc(N)nc21 | > 50000 | > 50 |  |
| COc1cc(COc2nc(N)nc3[nH]cnc23)ccc1OCc1ccccc1 | 11100 | 11.2 |  |
| Nc1nc(OCCCc2ccccc2)c2nc[nH]c2n1 | 3630 | 35.6 |  |
| COc1cccc(Oc2nc(N)nc3[nH]cnc23)c1 | 28200 | > 50 |  |
| Nc1nc(OCc2cccc(Cl)c2Cl)c2nc[nH]c2n1 | > 50000 | 13.3 |  |
| CCOC(=O)Cn1cnc2c(OCc3cccc(Cl)c3Cl)nc(N)nc21 | > 50000 | > 50 |  |
| Nc1nc(OCc2ccc(Br)cc2)c2[nH]cnc2n1 | 256 | 4.8 |  |
| Nc1nc(OCc2ccccc2Cl)c2nc[nH]c2n1 | 148 | 5.6 |  |
| Nc1nc(OCc2ccc(CNC(=O)C(F)(F)F)cc2)c2nc[nH]c2n1 | 148 |  | inhibition (SK-HEP1 [3]): Active; Activity (SK-HEP1 [4]): Active; Activity ([2]; hcc, 72 h): Non-toxic; inhibition (SK-HEP1 [5]): Active; Activity (SK-HEP1 [6]): Active; Activity (SK-HEP1 [7]): Active |
| Cc1ccc(COc2nc(N)nc3nc[nH]c23)cc1 | 293 | 6.1 |  |
